Experimental data as given in PMC9228592, “Dichloroacetyl Amides of 3,5-Bis(benzylidene)-4-piperidones Displaying Greater Toxicity to Neoplasms than to Non-Malignant Cells” (Medicines, 2022).

Tested on: HSC-4 squamous cell carcinoma cells
Experiment: Cytotoxicity (MTT, 48 h) against HSC-4 cells
Assay type: cell-based, human
Settings: 48 h, MTT, mean ± S.D. of triplicate
Source text: (§1) The target cells used in our study were human oral squamous cell carcinoma cell lines Ca9-22 (purchased from RIKEN Cell Bank, Tukuba, RCB-1976), HSC-2 (RCB1945), HSC-3 (RCB1975), HSC-4 (RCB1902), and three human normal oral cells, gingival fibroblast (HGF), periodontal ligament fibroblast (HPLF), and pulp cells (HPC) [established from the first premolar extracted tooth in the lower jaw (because of dysfunctional position or orthodontic treatment) and periodontal tissues of a child, according to the guideline of the Institutional Board of Meikai University Ethics Committee (No. A0808)], after obtaining informed consent from the patients. These cells were incubated for 48 h with the indicated concentrations of test samples or reference compounds sodium dichloroacetate (purchased from Sigma-Aldrich Chemical Company, Saint Louis, MO, USA), 5-fluorouracil (5-FU) from Kyowa (Tokyo, Japan), and doxorubicin (DXR) (St. Louis, MO, USA) and vehicle (DMSO) (0.008, 0.016, 0.031, 0.063, 0.125, 0.25, 0.5, and 1%) in Dulbecco’s Modified Eagle Medium (DMEM) media, which was supplemented with 10% heat-inactivated fetal bovine serum. Cell viability was determined by the MTT method. Cytotoxicity caused by the vehicle (DMSO) was subtracted.
(§2) SI was calculated by dividing the average CC50 value (concentration of the compound to kill 50% of the cells) of the compound towards HGF, HPLF, and HPC cells by the CC50 value of the compound against a specific neoplastic cell line.

| SMILES | CC50 [µM] |
| --- | --- |
| O=C([O-])C(Cl)Cl.[Na+] [SDA, sodium dichloroacetate, reference compound] | > 200 |

Same assay, conditions: Homo sapiens, HSC-4; 48 h, MTT, mean ± S.D. of triplicate

| SMILES | CC50 [µM] |
| --- | --- |
| COc1ccc(/C=C2\CN(C(=O)C(Cl)Cl)C/C(=C\c3ccc(OC)c(OC)c3)C2=O)cc1OC [Compound 1g] | 0.2 ± 0.04 |
| CC(=O)N1C/C(=C\c2ccccc2)C(=O)/C(=C/c2ccccc2)C1 [Compound 2b] | 1.57 ± 0.12 |
| O=c1[nH]cc(F)c(=O)[nH]1 [Compound 5-FU, 5-fluorouracil, reference compound] | 7.58 ± 0.5 |

Same assay, conditions: average CC50 towards HGF, HPLF, HPC divided by CC50 against HSC-4

| SMILES | SI (HSC-4) |
| --- | --- |
| COc1ccc(/C=C2\CN(C(=O)C(Cl)Cl)C/C(=C\c3ccc(OC)c(OC)c3)C2=O)cc1OC [Compound 1g] | 20.3 |
| CC(=O)N1C/C(=C\c2ccccc2)C(=O)/C(=C/c2ccccc2)C1 [Compound 2b] | 7.07 |

Tested on: periodontal ligament fibroblast (HPLF)
Experiment: Cytotoxicity (MTT, 48 h) against HPLF non-malignant cells
Assay type: cell-based, human
Settings: mean ± S.D. of triplicate
Source text: as §1

| SMILES | CC50 [µM] |
| --- | --- |
| O=C([O-])C(Cl)Cl.[Na+] [SDA, sodium dichloroacetate, reference compound] | > 200 |

Tested on: not listed separately
Experiment: as above
Assay type: cell-based, human
Settings: human, normal periodontal ligament fibroblasts (HPLF), mean ± S.D. of triplicate
Source text: as §1

| SMILES | CC50 at 48 h [µM] |
| --- | --- |
| COc1ccc(/C=C2\CN(C(=O)C(Cl)Cl)C/C(=C\c3ccc(OC)c(OC)c3)C2=O)cc1OC [Compound 1g] | 2.83 ± 1.53 |
| CC(=O)N1C/C(=C\c2ccccc2)C(=O)/C(=C/c2ccccc2)C1 [Compound 2b] | 5.6 ± 1.13 |
| O=c1[nH]cc(F)c(=O)[nH]1 [Compound 5-FU, 5-fluorouracil, reference compound] | > 1000 |

Tested on: Ca9-22 squamous cell carcinoma cells
Experiment: Cytotoxicity (MTT, 48 h) against Ca9-22 cells
Assay type: cell-based, human
Settings: 48 h, MTT, mean ± S.D. of triplicate
Source text: as §1, §2

| SMILES | CC50 [µM] |
| --- | --- |
| O=C([O-])C(Cl)Cl.[Na+] [SDA, sodium dichloroacetate, reference compound] | > 200 |

Same assay, conditions: Homo sapiens, Ca9-22; 48 h, MTT, mean ± S.D. of triplicate

| SMILES | CC50 [µM] |
| --- | --- |
| COc1ccc(/C=C2\CN(C(=O)C(Cl)Cl)C/C(=C\c3ccc(OC)c(OC)c3)C2=O)cc1OC [Compound 1g] | 0.11 ± 0.02 |
| CC(=O)N1C/C(=C\c2ccccc2)C(=O)/C(=C/c2ccccc2)C1 [Compound 2b] | 0.64 ± 0.01 |
| O=c1[nH]cc(F)c(=O)[nH]1 [Compound 5-FU, 5-fluorouracil, reference compound] | 24.5 ± 12.3 |

Same assay, conditions: average CC50 towards HGF, HPLF, HPC divided by CC50 against Ca9-22

| SMILES | SI (Ca9-22) |
| --- | --- |
| COc1ccc(/C=C2\CN(C(=O)C(Cl)Cl)C/C(=C\c3ccc(OC)c(OC)c3)C2=O)cc1OC [Compound 1g] | 36.8 |
| CC(=O)N1C/C(=C\c2ccccc2)C(=O)/C(=C/c2ccccc2)C1 [Compound 2b] | 17.3 |
| O=c1[nH]cc(F)c(=O)[nH]1 [Compound 5-FU, 5-fluorouracil, reference compound] | >40.7 |

Tested on: pulp cells (HPC)
Experiment: Cytotoxicity (MTT, 48 h) against HPC non-malignant cells
Assay type: cell-based, human
Settings: mean ± S.D. of triplicate
Source text: as §1

| SMILES | CC50 [µM] |
| --- | --- |
| O=C([O-])C(Cl)Cl.[Na+] [SDA, sodium dichloroacetate, reference compound] | > 200 |

Tested on: not listed separately
Experiment: as above
Assay type: cell-based, human
Settings: female, human, normal pulp cells (HPC), mean ± S.D. of triplicate
Source text: as §1

| SMILES | CC50 at 48 h [µM] |
| --- | --- |
| COc1ccc(/C=C2\CN(C(=O)C(Cl)Cl)C/C(=C\c3ccc(OC)c(OC)c3)C2=O)cc1OC [Compound 1g] | 1.19 ± 0.09 |
| CC(=O)N1C/C(=C\c2ccccc2)C(=O)/C(=C/c2ccccc2)C1 [Compound 2b] | 4.83 ± 0.12 |
| O=c1[nH]cc(F)c(=O)[nH]1 [Compound 5-FU, 5-fluorouracil, reference compound] | > 987 |

Tested on: HSC-3 squamous cell carcinoma cells
Experiment: Cytotoxicity (MTT, 48 h) against HSC-3 cells
Assay type: cell-based, human
Settings: 48 h, MTT, mean ± S.D. of triplicate
Source text: as §1, §2

| SMILES | CC50 [µM] |
| --- | --- |
| O=C([O-])C(Cl)Cl.[Na+] [SDA, sodium dichloroacetate, reference compound] | > 200 |

Same assay, conditions: Homo sapiens, HSC-3; 48 h, MTT, mean ± S.D. of triplicate

| SMILES | CC50 [µM] |
| --- | --- |
| COc1ccc(/C=C2\CN(C(=O)C(Cl)Cl)C/C(=C\c3ccc(OC)c(OC)c3)C2=O)cc1OC [Compound 1g] | 0.28 ± 0.03 |
| CC(=O)N1C/C(=C\c2ccccc2)C(=O)/C(=C/c2ccccc2)C1 [Compound 2b] | 2.25 ± 0.08 |
| O=c1[nH]cc(F)c(=O)[nH]1 [Compound 5-FU, 5-fluorouracil, reference compound] | 61.3 ± 9.8 |

Same assay, conditions: average CC50 towards HGF, HPLF, HPC divided by CC50 against HSC-3

| SMILES | SI (HSC-3) |
| --- | --- |
| COc1ccc(/C=C2\CN(C(=O)C(Cl)Cl)C/C(=C\c3ccc(OC)c(OC)c3)C2=O)cc1OC [Compound 1g] | 14.5 |
| CC(=O)N1C/C(=C\c2ccccc2)C(=O)/C(=C/c2ccccc2)C1 [Compound 2b] | 4.93 |
| O=c1[nH]cc(F)c(=O)[nH]1 [Compound 5-FU, 5-fluorouracil, reference compound] | >16.3 |

Tested on: gingival fibroblast (HGF)
Experiment: Cytotoxicity (MTT, 48 h) against HGF non-malignant cells
Assay type: cell-based, human
Settings: mean ± S.D. of triplicate
Source text: as §1

| SMILES | CC50 [µM] |
| --- | --- |
| O=C([O-])C(Cl)Cl.[Na+] [SDA, sodium dichloroacetate, reference compound] | > 200 |

Tested on: not listed separately
Experiment: as above
Assay type: cell-based, human
Settings: human, normal gingival fibroblasts (HGF), mean ± S.D. of triplicate
Source text: as §1

| SMILES | CC50 at 48 h [µM] |
| --- | --- |
| COc1ccc(/C=C2\CN(C(=O)C(Cl)Cl)C/C(=C\c3ccc(OC)c(OC)c3)C2=O)cc1OC [Compound 1g] | 8.13 ± 2.47 |
| CC(=O)N1C/C(=C\c2ccccc2)C(=O)/C(=C/c2ccccc2)C1 [Compound 2b] | 23 ± 1.7 |
| O=c1[nH]cc(F)c(=O)[nH]1 [Compound 5-FU, 5-fluorouracil, reference compound] | > 1000 |

Tested on: HGF, HPLF, and HPC cells
Experiment: Average cytotoxicity over the three non-malignant cells
Assay type: cell-based, human
Settings: not given
Source text: as §1

| SMILES | CC50 [µM] |
| --- | --- |
| O=C([O-])C(Cl)Cl.[Na+] [SDA, sodium dichloroacetate, reference compound] | > 200 |

Tested on: not listed separately
Experiment: as above
Assay type: cell-based, human
Settings: female, human, normal oral cells HGF, HPLF and HPC (average over the three)
Source text: as §1

| SMILES | CC50 at 48 h [µM] |
| --- | --- |
| COc1ccc(/C=C2\CN(C(=O)C(Cl)Cl)C/C(=C\c3ccc(OC)c(OC)c3)C2=O)cc1OC [Compound 1g] | 4.05 |
| CC(=O)N1C/C(=C\c2ccccc2)C(=O)/C(=C/c2ccccc2)C1 [Compound 2b] | 11.1 |
| O=c1[nH]cc(F)c(=O)[nH]1 [Compound 5-FU, 5-fluorouracil, reference compound] | > 996 |

Tested on: Ca9-22, HSC-2, HSC-3, and HSC-4 cells
Experiment: Average cytotoxicity, selectivity and PSE over the four carcinoma lines
Assay type: cell-based, human
Settings: Homo sapiens; average over Ca9-22, HSC-2, HSC-3, HSC-4
Source text: as §1, §2
PSE reflects both the potencies and differences in cytotoxicity to neoplasms and non-malignant cells. This value was the product of the reciprocal of the average CC50 value of the compounds towards Ca9-22, HSC-2, HSC-3, and HSC-4 cells and the average SI value × 100.

| SMILES | CC50 [µM] |
| --- | --- |
| COc1ccc(/C=C2\CN(C(=O)C(Cl)Cl)C/C(=C\c3ccc(OC)c(OC)c3)C2=O)cc1OC [Compound 1g] | 0.19 |
| CC(=O)N1C/C(=C\c2ccccc2)C(=O)/C(=C/c2ccccc2)C1 [Compound 2b] | 1.42 |
| O=c1[nH]cc(F)c(=O)[nH]1 [Compound 5-FU, 5-fluorouracil, reference compound] | 31 |

Same assay, conditions: average of SI over Ca9-22, HSC-2, HSC-3, HSC-4

| SMILES | Average SI |
| --- | --- |
| COc1ccc(/C=C2\CN(C(=O)C(Cl)Cl)C/C(=C\c3ccc(OC)c(OC)c3)C2=O)cc1OC [Compound 1g] | 23.9 |
| CC(=O)N1C/C(=C\c2ccccc2)C(=O)/C(=C/c2ccccc2)C1 [Compound 2b] | 9.58 |
| O=c1[nH]cc(F)c(=O)[nH]1 [Compound 5-FU, 5-fluorouracil, reference compound] | >55.2 |

Same assay, conditions: average over Ca9-22, HSC-2, HSC-3, HSC-4

| SMILES | Average CC50 | CC50 [µM] |
| --- | --- | --- |
| O=C([O-])C(Cl)Cl.[Na+] [SDA, sodium dichloroacetate, reference compound] | little or no efficacy | > 200 |

Tested on: HSC-2 squamous cell carcinoma cells
Experiment: Cytotoxicity (MTT, 48 h) against HSC-2 cells
Assay type: cell-based, human
Settings: 48 h, MTT, mean ± S.D. of triplicate
Source text: as §1, §2

| SMILES | CC50 [µM] |
| --- | --- |
| O=C([O-])C(Cl)Cl.[Na+] [SDA, sodium dichloroacetate, reference compound] | > 200 |

Same assay, conditions: Homo sapiens, HSC-2; 48 h, MTT, mean ± S.D. of triplicate

| SMILES | CC50 [µM] |
| --- | --- |
| COc1ccc(/C=C2\CN(C(=O)C(Cl)Cl)C/C(=C\c3ccc(OC)c(OC)c3)C2=O)cc1OC [Compound 1g] | 0.17 ± 0.02 |
| CC(=O)N1C/C(=C\c2ccccc2)C(=O)/C(=C/c2ccccc2)C1 [Compound 2b] | 1.23 ± 0.07 |
| O=c1[nH]cc(F)c(=O)[nH]1 [Compound 5-FU, 5-fluorouracil, reference compound] | 30.5 ± 7.1 |

Same assay, conditions: average CC50 towards HGF, HPLF, HPC divided by CC50 against HSC-2

| SMILES | SI (HSC-2) |
| --- | --- |
| COc1ccc(/C=C2\CN(C(=O)C(Cl)Cl)C/C(=C\c3ccc(OC)c(OC)c3)C2=O)cc1OC [Compound 1g] | 23.8 |
| CC(=O)N1C/C(=C\c2ccccc2)C(=O)/C(=C/c2ccccc2)C1 [Compound 2b] | 9.02 |
| O=c1[nH]cc(F)c(=O)[nH]1 [Compound 5-FU, 5-fluorouracil, reference compound] | >32.7 |
